Reference: patent publication US20060251617A1, “Methods for treating lymphomas” (Chiron Corporation, priority 2005, published 2006)

How the values were obtained:
[1] = tested on: human B-cell lymphoma (Daudi) xenograft; test: Daudi xenograft model: IL-2 with CHOP and individual CHOP constituents (Example 2); format: in vivo, BALB/c nude mice; details: for Median Tumor Growth delay / Response rate (CR/PR): CR / Response rate (CR/PR): PR: Table 9, n = 10-20 mice/group; for CR/PR on day 28: CR: number of mice with complete response; for CR/PR on day 28: PR: number of mice with partial response; for Group Mean Days of Delay to 1000 mm^3: vs. control group
Description: (§1) Passaged, clonally derived Daudi cells (5×10^6 cells/mouse) were reconstituted with 50% Matrigel (BD Biosciences) in a total volume of 0.1 ml and implanted subcutaneously into the right flank of irradiated (3Gy) BALB/c nude mice. Treatments were initiated when the mean tumor volume was 150-300 mm^3. Mice were randomly assigned typically into 10 mice per group. […] Tumor volume is measured using calipers. Caliper measurements of tumors were converted into tumor volume (mm^3) using the formula: ½ (length (mm)×[width (mm)]^2). Tumor growth inhibition (TGI) was calculated as [1−(mean tumor volume of treated group/mean tumor volume of control group)×100]. […] Tumor growth delay (TGD) analysis was calculated as: [(number of days for a treated group to reach a mean tumor volume of 1000 mm^3)−(number of days for the control group to reach a mean tumor volume of 1000 mm^3)]. Percent conditional survival is the percent of mice in each group in which the tumor volume has not reached 1000 mm^3.
Athymic nude BALB/c mice (10 mice/group) were acclimated and irradiated mice were implanted with Daudi cells as described above. Treatment started when tumors were approximately 140 mm^3. This was designated study day 1.
Treatment groups were as follows:
Doxorubicin (H, adriamycin), 3.3 mg/kg, i.v, day 1;
Vincristine (O), 0.5 mg/kg, i.v, day 1;
Prednisone (P), 0.2 mg/kg p.o, days 1-5;
Proleukin® (IL-2), 1 mg/kg; s.c., thrice weekly for 4 weeks, total 12 doses;
Proleukin® (IL-2)+individual chemotherapeutics (as dosed individually, started on day 1);
Proleukin® (IL-2)+CHOP (similar dosing regimens to single agents, started on day 1).

[2] = tested on: Daudi lymphoma tumor model; test: Pooled Daudi xenograft studies and assessment of synergistic activity (Example 5); format: in vivo, BALB/c nude mice; details: pooled studies; for Tumor response CR / Tumor response PR: number of mice, (n) in cell; for Tumor response RR: response rate; for TGI: vs. vehicle
Description: as §1
(§2) Multiple comparisons were performed using one-way analysis of variance (ANOVA); post-test to compare different treatment means was done using Student-Newman Keuls test (SigmaStat). Tumor growth delay for each animal (time to 1000 mm^3) was used as the endpoint for conditional survival, and significance between treatments was analysed using a log rank test (Prism). Mice that had no visible tumors at necropsy upon termination of the study were considered censored in this analysis. Differences were considered statistically significant at p<0.05.
Several studies of these agents and combinations of these agents were performed in the Daudi lymphoma tumor model. The data from these multiple experiments were then pooled together for further analysis (Table 10). In vivo drug synergy was evaluated from the response index of combination treatments using multiple drug effect analyses.

[3] = tested on: human B-cell lymphoma (Daudi) xenograft; test: Daudi xenograft model of human B-cell lymphoma: IL-2/CHOP/rituximab regimens (Example 1); format: in vivo, BALB/c nude mice
Description: as §1, §2
See, e.g., Hudson et al., Leukemia (1998) 12:2029-2033 for a description of the Daudi xenograft model. The Daudi/BALB/c nude model expresses high levels of CD20 and is associated with a less aggressive/low grade disease profile. Furthermore, NK cells cannot lyse Daudi tumor cells in the absence of activation by cytokines such as IL-2. See, e.g., Damle et al., J. Immunol. (1987) 138:1779-1785.
120 athymic nude BALB/c mice were acclimated for 1 week to the inoculation of Daudi human B-cell lines. Daudi cells (5×10^6 cells/mouse) were implanted s.c. (right flank) into irradiated young nude mice (3Gy for approximately 3.2 minutes) with 50% matrigel at a volume of 0.1 ml and grown as subcutaneous tumors until tumor volume reached 110 mm^3. This was designated study day 1.
Clinical observations were noted.

[4] = mouse, in vivo
Description: (§3) Proleukin® treatment (1 mg/kg; s.c., thrice weekly) commenced either concomitantly (on day 8) or one week later (day 15) for a total of 4 weeks. […] Tumor volumes and body weights were measured two times per week. Clinical observations were noted.

[5] = Body weight, clinical observations and tolerability in Daudi tumor-bearing mice; details: Example 5
Description: as §3

| Molecule | Median Tumor Growth delay [1] | Response rate (CR/PR): CR [1] | Response rate (CR/PR): PR [1] | CR/PR on day 28: CR [1] | CR/PR on day 28: PR [1] | Group Mean Days of Delay to 1000 mm^3 [1] | Growth delay [2] | Tumor response CR [2] | Tumor response PR [2] | Tumor response RR [2] | TGI [2] | further results |
| --- | --- | --- | --- | --- | --- | --- | --- | --- | --- | --- | --- | --- |
| O=P1(N(CCCl)CCCl)NCCCO1 (stereo not drawn) [Cyclophosphamide, cyclophosphamide] | 1 days | 0/0 | 0/0 | 0/0 | 0/0 | 1 days | 1 days | 0%; 0/0 (10) | 0%; 0/0 (10) | 0%; 0/0 (10) | 2%, p > 0.05 |  |
| COc1cccc2c1C(=O)c1c(O)c3c(c(O)c1C2=O)C[C@@](O)(C(=O)CO)C[C@@H]3O[C@H]1C[C@H](N)[C@H](O)[C@H](C)O1 [Doxorubicin] | 2 days | 0/0 | 0/0 | 0/0 | 0/0 | 2 days | 2 days | 0%; 0/0 (10) | 0%; 0/0 (10) | 0%; 0/0 (10) | 9%, p > 0.05 |  |
| C[C@]12C=CC(=O)C=C1CC[C@@H]1[C@@H]2C(=O)C[C@@]2(C)[C@H]1CC[C@]2(O)C(=O)CO [Prednisone] | 2 days | 1 | 0 | 1 | 0 | 2 days | 2 days | 1 | 0 | 10% | 10%, p > 0.05 |  |
| CC[C@]1(O)C[C@H]2CN(CCc3c([nH]c4ccccc34)[C@@](C(=O)OC)(c3cc4c(cc3OC)N(C=O)[C@H]3[C@@](O)(C(=O)OC)[C@H](OC(C)=O)[C@]5(CC)C=CCN6CC[C@]43[C@@H]65)C2)C1 [Vincristine] | 12 days | 0/0 | 0/0 | 0/0 | 0/0 | 12 days | 12 days | 0%; 0/0 (10) | 0%; 0/0 (10) | 0%; 0/0 (10) |  |  |
| des-alanyl-1, serine-125 human interleukin-2 [IL-2] | 2 days | 0/0 | 0/0 | 0/0 | 0/0 | 2 days | 2 days | 2 | 1 | 5% |  | CR/PR day 29: CR ([3]; mouse, in vivo): 0/0; CR/PR day 29: PR ([3]; mouse, in vivo): 0/0; CR/PR day 164: CR ([3]; mouse, in vivo): 1/0; CR/PR day 164: PR ([3]; mouse, in vivo): 1/0; tumor growth / efficacy in words ([3]; mouse, in vivo): significantly inhibited tumor growth; median conditional survival (days to 1000 mm3) ([3]; time for tumor to reach 1000 mm3): 25 days; TGI day 29 ([3]; tumor growth inhibition vs. vehicle, day 29, n = 10): 33.52%; % max BW. change (day, range) [4]: 12(+8 to +14) day 39%; Clinical Observation [4]: BAR; tolerability [5]: well-tolerated |
